In patent US20240287138A1, “CYCLIC PEPTIDES FOR INHIBITING TNF RECEPTOR 1 ACTIVITY” (Merck Sharp & Dohme LLC, priority 2023, published 2024):
Numbered stars: 1 amine (or outer) side, 2 acyl side, 3 side chain; on linkers, the order of the positions; unused ones are H or OH. Bridge positions count the residues as written; N and C are the ends. Square brackets hold non-standard residues; d marks the D form. Peptide text beside a SMILES is read from it. * marks the point of attachment. Trp(βS-Me,7-OMe) = COc1cccc2c([C@H](C)[C@H](N)C(=O)O)c[nH]c12; X24 = O=C(O)c1ccc([C@@H](O)[C@H](N[*:1])C(=O)[*:2])cc1; Morpholine(3S-CO,6,6-Me2) = CC1(C)CN[C@H](C(=O)O)CO1; Trp(7-CN) = N#Cc1cccc2c(C[C@H](N)C(=O)O)c[nH]c12; Trp(7-Cl) = N[C@@H](Cc1c[nH]c2c(Cl)cccc12)C(=O)O; Phe(3-CONH2) = NC(=O)c1cccc(C[C@H](N)C(=O)O)c1; Phe(4-CONH2) = NC(=O)c1ccc(C[C@H](N)C(=O)O)cc1; Phe(4-COOH) = N[C@@H](Cc1ccc(C(=O)O)cc1)C(=O)O; 4Pal(3S-Me) = C[C@@H](c1ccncc1)[C@H](N)C(=O)O; Trp(7-aza) = N[C@@H](Cc1c[nH]c2ncccc12)C(=O)O; Pip(5R-OH) = O=C(O)[C@@H]1CC[C@@H](O)CN1; X1 = O=C([C@@H]1CC[C@H](N[*:1])C1)[*:2]; Pip(4-aza) = O=C(O)[C@@H]1CNCCN1; 4Pal = N[C@@H](Cc1ccncc1)C(=O)O; NMeE = CN[C@@H](CCC(=O)O)C(=O)O; dHyp = O=C(O)[C@H]1C[C@H](O)CN1; aThr = C[C@H](O)[C@H](N)C(=O)O; Ahp(2) = CCCCC[C@H](N)C(=O)O; αMeS = C[C@](N)(CO)C(=O)O; Carboxymethyl = O=C(O)C*; Nle = CCCC[C@H](N)C(=O)O; Sar = CNCC(=O)O

Experiments:
[1] = target: T1, human soluble TNFR1 (sTNFR1) (Homo sapiens, UniProt P19438); test: Human sTNFR1-peptide displacement assay (LanthaScreen Eu TR-FRET binding assay)
T1 construct: made in house; host or cells: Sf21 (baculovirus)
T1 sequence (P19438 with tags, fused parts or gaps): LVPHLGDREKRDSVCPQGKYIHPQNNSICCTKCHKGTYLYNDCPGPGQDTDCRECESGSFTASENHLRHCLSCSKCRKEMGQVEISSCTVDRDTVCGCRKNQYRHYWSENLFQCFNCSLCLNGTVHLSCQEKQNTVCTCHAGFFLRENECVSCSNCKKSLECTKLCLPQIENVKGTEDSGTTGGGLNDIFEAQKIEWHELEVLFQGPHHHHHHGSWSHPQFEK
Outline: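 Readout is the 665/615 nm TR-FRET ratio (Eu anti-His donor, streptavidin-Alexa647 acceptor), normalized to DMSO and saturating displacer, fit by Morrison-based five-parameter logistic for Kd^app. His-tagged sTNFR1 (1-211) prebound to 100 nM biotinylated peptide SEQ ID NO.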

human TNFR2 ECD protein = target: T2, human TNFR2 ECD protein (Homo sapiens, UniProt P20333); test: SPR off-target binding (selectivity) to human TNFR2 ECD
T2 construct: HRV 3C protease cleavage site (C); 6His (C, cleaved yes); made in house; host or cells: Sf21 insect cells (baculovirus), secreted
T2 sequence (P20333 23-257): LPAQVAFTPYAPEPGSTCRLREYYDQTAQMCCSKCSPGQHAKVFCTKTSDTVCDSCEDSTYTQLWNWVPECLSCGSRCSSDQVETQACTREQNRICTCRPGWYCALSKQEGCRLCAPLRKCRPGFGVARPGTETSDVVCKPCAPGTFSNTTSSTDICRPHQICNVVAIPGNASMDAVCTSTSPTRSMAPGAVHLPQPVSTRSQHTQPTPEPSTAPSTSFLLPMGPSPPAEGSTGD
Outline: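 Insect-cell human receptor ECDs, enzymatically biotinylated, immobilized via streptavidin capture chip. Peptide binding and dissociation measured in RU in pH 7.4 HEPES buffer containing 2% DMSO; chip regenerated per analyte. Rate constants give affinity.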

## CCCCC[C@@H]1NC(=O)[C@@H]2CC[C@@H](C2)NC(=O)[C@H]([C@@H](C)c2c[nH]c3c(OC)cccc23)NC(=O)CN(C)C(=O)[C@H](Cc2cccc(C(N)=O)c2)NC(=O)[C@H](Cc2ccc(C(N)=O)cc2)NC(=O)[C@](C)(CO)NC(=O)[C@H](Cc2c[nH]c3c(C#N)cccc23)NC(=O)[C@H](Cc2ccncc2)NC(=O)[C@H](CC(N)=O)NC(=O)[C@H]2C[C@H](O)CN2C(=O)[C@H](Cc2c[nH]c3ccccc23)NC(=O)[C@@H]2CNCCN2C(=O)[C@H](Cc2ccncc2)NC1=O [SEQ ID NO. 174] (cyclo([4Pal][Trp(7-CN)][αMeS][Phe(4-CONH2)][Phe(3-CONH2)][Sar][Trp(βS-Me,7-OMe)][X1][Ahp(2)][4Pal][Pip(4-aza)]W[dHyp]N))
[1]
  Kd: 0.06 nM
Human TNFR2 ECD protein
  Kd: > 1000 nM

## CCCC[C@@H]1NC(=O)CSC[C@@H](C(N)=O)NC(=O)[C@H]([C@@H](C)c2c[nH]c3c(OC)cccc23)NC(=O)CN(C)C(=O)[C@H](Cc2ccc(O)cc2)NC(=O)[C@H](Cc2ccc(C(=O)O)cc2)NC(=O)[C@](C)(CO)NC(=O)[C@H](Cc2c[nH]c3c(Cl)cccc23)NC(=O)[C@H](Cc2ccc(OCC(=O)O)cc2)NC(=O)[C@H](CC(N)=O)NC(=O)[C@H](CCC(=O)O)N(C)C(=O)[C@H](Cc2c[nH]c3ccccc23)NC(=O)[C@@H]2COC(C)(C)CN2C(=O)[C@H](Cc2ccncc2)NC1=O [SEQ ID NO. 179] ({CH2CO}-[Nle][4Pal][Morpholine(3S-CO,6,6-Me2)]W[NMeE]NY(Carboxymethyl)[Trp(7-Cl)][αMeS][Phe(4-COOH)]Y[Sar][Trp(βS-Me,7-OMe)]C-NH2; thioether N-14)
[1]
  IC50: 0.5 nM
  Kd: 0.29 nM
Human TNFR2 ECD protein
  Kd: > 1000 nM

## CCCC[C@@H]1NC(=O)CSC[C@@H](C(N)=O)NC(=O)[C@H]([C@@H](C)c2c[nH]c3c(OC)cccc23)NC(=O)CN(C)C(=O)[C@H](Cc2ccc(O)cc2)NC(=O)[C@H](Cc2ccc(C(=O)O)cc2)NC(=O)[C@](C)(CO)NC(=O)[C@H](Cc2c[nH]c3c(Cl)cccc23)NC(=O)[C@H](Cc2ccncc2)NC(=O)[C@H](CC(N)=O)NC(=O)[C@H](CCC(=O)O)N(C)C(=O)[C@H](Cc2c[nH]c3ncccc23)NC(=O)[C@H](CO)NC(=O)[C@H]([C@@H](C)c2ccncc2)NC1=O [SEQ ID NO. 180] ({CH2CO}-[Nle][4Pal(3S-Me)]S[Trp(7-aza)][NMeE]N[4Pal][Trp(7-Cl)][αMeS][Phe(4-COOH)]Y[Sar][Trp(βS-Me,7-OMe)]C-NH2; thioether N-14)
[1]
  IC50: 0.3 nM
  Kd: 0.18 nM
Human TNFR2 ECD protein
  Kd: > 1000 nM

## CCCC[C@@H]1NC(=O)[C@@H]2CC[C@@H](C2)NC(=O)[C@H]([C@@H](C)c2c[nH]c3c(OC)cccc23)NC(=O)CN(C)C(=O)[C@H](Cc2ccc(C(=O)O)cc2)NC(=O)[C@H](Cc2ccc(C(N)=O)cc2)NC(=O)[C@](C)(CO)NC(=O)[C@H](Cc2c[nH]c3c(Cl)cccc23)NC(=O)[C@H](Cc2ccncc2)NC(=O)[C@H]([C@H](C)O)NC(=O)[C@H]2C[C@H](O)CN2C(=O)[C@H](Cc2c[nH]c3ccccc23)NC(=O)[C@@H]2CC[C@@H](O)CN2C(=O)[C@H](Cc2ccncc2)NC1=O [SEQ ID NO. 187] (cyclo([4Pal][Trp(7-Cl)][αMeS][Phe(4-CONH2)][Phe(4-COOH)][Sar][Trp(βS-Me,7-OMe)][X1][Nle][4Pal][Pip(5R-OH)]W[dHyp][aThr]))
[1]
  Kd: 0.09 nM
Human TNFR2 ECD protein
  Kd: > 1000 nM

## CCCC[C@@H]1NC(=O)[C@@H]2CC[C@@H](C2)NC(=O)[C@H]([C@@H](C)c2c[nH]c3c(OC)cccc23)NC(=O)CN(C)C(=O)[C@H]([C@H](O)c2ccc(C(=O)O)cc2)NC(=O)[C@H](Cc2ccc(C(N)=O)cc2)NC(=O)[C@](C)(CO)NC(=O)[C@H](Cc2c[nH]c3c(Cl)cccc23)NC(=O)[C@H](Cc2ccncc2)NC(=O)[C@H](CC(N)=O)NC(=O)[C@H]2C[C@H](O)CN2C(=O)[C@H](Cc2c[nH]c3ccccc23)NC(=O)[C@@H]2CC[C@@H](O)CN2C(=O)[C@H](Cc2ccncc2)NC1=O [SEQ ID NO. 188] (cyclo([4Pal][Trp(7-Cl)][αMeS][Phe(4-CONH2)][X24][Sar][Trp(βS-Me,7-OMe)][X1][Nle][4Pal][Pip(5R-OH)]W[dHyp]N))
[1]
  Kd: 0.1 nM
Human TNFR2 ECD protein
  Kd: > 1000 nM
